Values quoted from earlier work as cited in PMC9217999 (Targeted Oncology, 2022).

Key:
Details in all cases: cited from earlier work
recurrent/refractory LGG = system: recurrent/refractory LGG
NF1 and inoperable PN = system: NF1 and inoperable PN
NF1-associated PN = system: NF1-associated PN

| SMILES | PR (bidimensional measurements on T2/FLAIR) (recurrent/refractory LGG; 5/25, four with BRAF aberrations) [%] | 2-year PFS (recurrent/refractory LGG) [%] | Confirmed PR rate (NF1 and inoperable PN) [%] | PR rate (NF1 and inoperable PN) [%] | Stable disease (NF1 and inoperable PN) [%] | Responses ongoing (NF1-associated PN; 10/12 responses) [%] | Patients with PR (NF1-associated PN; 12/26 patients, preliminary data) [%] |
| --- | --- | --- | --- | --- | --- | --- | --- |
| Cn1cnc2c(F)c(Nc3ccc(Br)cc3Cl)c(C(=O)NOCCO)cc21 [selumetinib] | 20 | 69 | 68 | 74 | 12 | – | – |
| CC(=O)Nc1cccc(-n2c(=O)n(C3CC3)c(=O)c3c(Nc4ccc(I)cc4F)n(C)c(=O)c(C)c32)c1 [trametinib] | – | – | – | – | – | 83 | 46 |
